# Measurements reported in US8569338B2, “Methods of using 4, 5, 6, 7-tetrahydroimidazo-[4,5-c]pyridine compounds” (Proximagen Ltd., priority 2008, dated 2013).
# Target: purified recombinantly expressed human SSAO (Homo sapiens (Human), UniProt Q16853)
# Assay: SSAO enzyme inhibition assay (HRP-coupled Amplex Red, benzylamine substrate)
# Assay type: biochemical
# Details: benzylamine 100 μM, approximately 60 minutes pre-incubation, pH 7.4, room temperature
# Experimental: Biological Assay of the SSAO Enzyme Inhibitors
# All assays were performed in room temperature with purified recombinantly expressed human SSAO. Enzyme was prepared essentially as described in Ohman et al. (Protein Expression and Purification 2006, 46, 321-331). The enzyme activity was measured with benzylamine as substrate and utilized the production of hydrogen peroxide for detection. In a horseradish peroxidise (HRP) coupled reaction, hydrogen peroxide oxidation of 10-acetyl-3,7-dihydroxyphenoxazine produced resorufin, which is a highly fluorescent compound (Zhout and Panchuk-Voloshina. Analytical Biochemistry 1997, 253, 169-174; Amplex® Red Hydrogen Peroxide/peroxidise Assay kit, Invitrogen A22188).
# Briefly, test compounds were dissolved in dimethyl sulfoxide (DMSO) to a concentration of 10 mM. Dose-response measurements were assayed by either creating 1:10 serial dilutions in DMSO to produce a 7 point curve or by making 1:3 serial dilutions in DMSO to produce 11 point curves. The top concentrations were adjusted depending on the potency of the compounds and subsequent dilution in reaction buffer (50 mM sodium phosphate, pH 7.4) yielded a final DMSO concentration≦2%. Enzyme and compounds were set to pre-incubate in flat-bottomed microtiter plates for approximately 60 minutes before initiating the reaction by addition of a mixture of HRP, benzylamine and Amplex reagent. Fluorescence intensity was then measured at several time points (15 minutes, 20 minutes and 30 minutes) exciting at 544 nm and reading the emission at 590 nm). Final concentrations of the reagents in the assay wells were: SSAO enzyme 2 μg/ml, benzylamine 100 μM, Amplex reagent 20 μM, HRP 0.1 U/mL and varying concentrations of test compound. The inhibition was measured as % decrease of the signal compared to a control without inhibitor (only diluted DMSO). The background signal from a sample containing no SSAO enzyme was subtracted from all data points. Data was fitted to a four parameter logistic model and IC50 values were calculated using the GraphPad Prism 4 or XLfit 4 programs.
# Chain of purified recombinantly expressed human SSAO (Q16853 29-763): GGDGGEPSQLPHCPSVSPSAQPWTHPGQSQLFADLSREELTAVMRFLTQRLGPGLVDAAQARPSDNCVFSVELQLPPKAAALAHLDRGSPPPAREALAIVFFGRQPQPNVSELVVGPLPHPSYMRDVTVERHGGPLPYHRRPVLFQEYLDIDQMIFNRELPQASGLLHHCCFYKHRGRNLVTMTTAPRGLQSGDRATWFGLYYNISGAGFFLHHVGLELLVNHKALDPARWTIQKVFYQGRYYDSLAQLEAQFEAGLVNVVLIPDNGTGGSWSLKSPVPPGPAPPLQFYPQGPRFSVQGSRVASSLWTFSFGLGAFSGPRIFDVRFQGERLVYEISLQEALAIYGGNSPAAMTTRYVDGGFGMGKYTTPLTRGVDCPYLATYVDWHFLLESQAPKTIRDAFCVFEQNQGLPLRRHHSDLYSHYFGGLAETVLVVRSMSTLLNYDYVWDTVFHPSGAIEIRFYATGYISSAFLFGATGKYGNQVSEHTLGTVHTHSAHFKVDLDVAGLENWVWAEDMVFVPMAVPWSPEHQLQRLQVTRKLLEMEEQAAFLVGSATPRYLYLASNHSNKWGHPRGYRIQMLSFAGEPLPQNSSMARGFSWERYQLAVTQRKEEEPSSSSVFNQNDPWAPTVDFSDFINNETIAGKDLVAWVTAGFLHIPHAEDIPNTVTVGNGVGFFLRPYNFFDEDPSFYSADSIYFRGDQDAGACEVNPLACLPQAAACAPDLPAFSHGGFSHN
row,IC50 [nM],SMILES
1,34,"CC(C)C1c2[nH]cnc2CCN1C(=O)OCc1cccnc1 (stereo not drawn) [Example 7, Pyridin-3-ylmethyl 4-isopropyl-1,4,6,7-tetrahydro-5H-imidazo[4,5-c]pyridine-5-carboxylate]"
2,48,"CC(C)C1c2[nH]cnc2CCN1C(=O)OCCOc1ccccc1 (stereo not drawn) [Example 14, 2-Phenoxyethyl 4-isopropyl-1,4,6,7-tetrahydro-5H-imidazo[4,5-c]pyridine-5-carboxylate]"
3,91,"CC(C)C1c2[nH]cnc2CCN1C(=O)OCC1CCOC1 (stereo not drawn) [Example 17, Tetrahydrofuran-3-ylmethyl 4-isopropyl-1,4,6,7-tetrahydro-5H-imidazo[4,5-c]-pyridine-5-carboxylate]"
